Measurements: patent publication US9567339B2, “Primary carboxamides as BTK inhibitors” (AbbVie Inc., priority 2013, dated 2017)
Where two headings read alike, the source gives them in different places.

Target: BTK, recombinant human catalytic domain (aa 393-659) (Homo sapiens (Human), UniProt Q06187)
Assay: In vitro BTK kinase activity measured by time-resolved fluorescence resonance energy transfer (trFRET)
Type: biochemical
Conditions: read-out: Btk IC50
[1] = trFRET, 0.001 mM ATP, biotin-TYR1 peptide substrate

Sequence of BTK, recombinant human catalytic domain (aa 393-659) (Q06187 393-659): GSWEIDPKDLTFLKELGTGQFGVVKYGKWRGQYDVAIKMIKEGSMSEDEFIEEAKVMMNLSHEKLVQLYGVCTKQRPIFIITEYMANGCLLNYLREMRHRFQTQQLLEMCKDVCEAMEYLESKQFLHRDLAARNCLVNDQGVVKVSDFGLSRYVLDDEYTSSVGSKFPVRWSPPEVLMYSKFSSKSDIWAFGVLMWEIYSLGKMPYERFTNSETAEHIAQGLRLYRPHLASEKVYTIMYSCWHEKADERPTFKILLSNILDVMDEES

IC50 [nM] | IC50 [1] [nM] | Compound
 | < 100 | C=CC(=O)Nc1cccc(-c2ccc(C(N)=O)c3[nH]c(-c4cccnc4)cc23)c1C [A.1.36]
 | < 100 | C=CC(=O)Nc1cccc(-c2ccc(C(N)=O)c3[nH]ncc23)c1 [Example 18, 4-(3-Acrylamidophenyl)-1H-indazole-7-carboxamide]
< 100 |  | Cc1c(NC(=O)C(C)Cl)cccc1-c1ccc(C(N)=O)c2[nH]c(C3=CCN(S(C)(=O)=O)CC3)cc12 (stereo not drawn) [D.7.8]
< 100 |  | C=CC(=O)NCc1ccccc1-c1ccc(C(N)=O)c2[nH]c(C3=CCN(S(C)(=O)=O)CC3)cc12 [E.1.1]
< 100 |  | Cc1c(NC(=O)CC#N)cccc1-c1ccc(C(N)=O)c2[nH]c(C3=CCN(S(C)(=O)=O)CC3)cc12 [D.7.4]
< 100 |  | Cc1c(-c2ccc(C(N)=O)c3[nH]c(-c4cnn(C[C@H](O)CO)c4)cc23)cccc1-n1cnc2ccccc2c1=O [K.1.1]
< 100 |  | Cn1cc(-c2cc3c(-c4cccc(-n5cnc6ccc(F)cc6c5=O)c4CO)ccc(C(N)=O)c3[nH]2)cn1 [M.1.1]
 | < 100 | C=CC(=O)Nc1cccc(-c2ccc(C(N)=O)c3[nH]c(-c4cn(C)nc4C)cc23)c1C [A.1.5]
 | 1000 to 10000 | C/C=C/C(=O)NCc1ccccc1-c1cc2c(-c3cccc(NC(=O)c4nccs4)c3C)ccc(C(N)=O)c2[nH]1 [D.1.9]
< 100 |  | Cc1c(NC(=O)COc2ccc(C#N)cc2)cccc1-c1ccc(C(N)=O)c2[nH]c(C3=CCN(S(C)(=O)=O)CC3)cc12 [D.7.13]
< 100 |  | Cc1c(NC(=O)COc2ccc(F)cc2)cccc1-c1ccc(C(N)=O)c2[nH]c(C3=CCN(S(C)(=O)=O)CC3)cc12 [D.7.11]
 | 100 to 1000 | C=CC(=O)Nc1cccc(-c2ccc(C(N)=O)c3[nH]c(-c4c(C)n[nH]c4C)cc23)c1C [A.1.3]
 | 1000 to 10000 | C=CC(=O)NCc1ccccc1-c1cc2c(-c3cccc(NC(=O)c4nccs4)c3C)ccc(C(N)=O)c2[nH]1 [D.1.2]
< 100 |  | Cc1c(NC(=O)COc2cccnn2)cccc1-c1ccc(C(N)=O)c2[nH]c(C3=CCN(S(C)(=O)=O)CC3)cc12 [D.7.28]
 | < 100 | C=CC(=O)Nc1cccc(-c2ccc(C(N)=O)c3[nH]c(-c4cnn(CC(C)C)c4)cc23)c1C [A.1.7]
 | < 100 | CCNC(=O)/C=C\C(=O)Nc1cccc(-c2ccc(C(N)=O)c3[nH]ccc23)c1C [D.8.15]
 | 1000 to 10000 | C=C(C)C(=O)Nc1cccc(-c2ccc(C(N)=O)c3[nH]ccc23)c1C [D.8.10]
< 100 |  | C=CC(=O)Nc1cc(-c2ccc(C(N)=O)c3[nH]ccc23)ccc1F [E.1.23]
< 100 |  | C=CC(=O)Nc1cncc(-c2ccc(C(N)=O)c3[nH]ccc23)c1 [E.1.4]

IC50 [nM] | IC50 [1] [nM] | Compound
 | < 100 | CCOC(=O)/C=C/C(=O)Nc1cccc(-c2ccc(C(N)=O)c3[nH]ccc23)c1C [D.8.1]
< 100 |  | Cc1c(NC(=O)C2=CCCC2)cccc1-c1ccc(C(N)=O)c2[nH]c(C3=CCN(S(C)(=O)=O)CC3)cc12 [D.7.15]
 | 100 to 1000 | C/C=C/C(=O)Nc1cccc(-c2ccc(C(N)=O)c3[nH]ccc23)c1C [D.8.9]
< 100 |  | Cc1c(NC(=O)C(F)(F)Cl)cccc1-c1ccc(C(N)=O)c2[nH]c(C3=CCN(S(C)(=O)=O)CC3)cc12 [D.7.7]
 | 100 to 1000 | C#CC(=O)NCc1ccccc1-c1cc2c(-c3cccc(NC(=O)c4nccs4)c3C)ccc(C(N)=O)c2[nH]1 [D.1.11]
 | < 100 | C=CC(=O)Nc1cccc(-c2ccc(C(N)=O)c3[nH]c(-c4cnn(CC)c4)cc23)c1C [A.1.6]
< 100 |  | CCC(=O)Nc1cccc(-c2ccc(C(N)=O)c3[nH]c(C4=CCN(S(C)(=O)=O)CC4)cc23)c1C [D.7.41]
 | < 100 | C=CC(=O)Nc1cccc(-c2ccc(C(N)=O)c3[nH]c(-c4cccc(NC(C)=O)c4)cc23)c1C [A.1.15]
 | < 100 | C=CC(=O)Nc1cccc(-c2ccc(C(N)=O)c3[nH]c(-c4cnn(C(C)C)c4)cc23)c1C [A.1.4]
 | < 100 | C=CC(=O)Nc1cccc(-c2ccc(C(N)=O)c3[nH]c(-c4ccc(F)cc4)cc23)c1C [A.1.32]
1000 to 10000 |  | C=CC(=O)Nc1cc(-c2ccc(C(N)=O)c3[nH]ccc23)ccc1OCc1ccccc1 [E.1.12]
 | < 100 | Cc1c(NC(=O)c2nccs2)cccc1-c1ccc(C(N)=O)c2[nH]c(C3=CCN(S(C)(=O)=O)CC3)cc12 [A.4.17]
 | < 100 | Cc1c(NC(=O)c2nccs2)cccc1-c1ccc(C(N)=O)c2[nH]c(-c3ccc(=O)n(C)c3)cc12 [A.2.1]
1000 to 10000 |  | Cc1c(NC(=O)/C=C/CN2CCN(C)CC2)cccc1-c1ccc(C(N)=O)c2[nH]ccc12 [J.1.6]
< 100 |  | Cc1c(NC(=O)C2CCN(C)CC2)cccc1-c1ccc(C(N)=O)c2[nH]c(C3=CCN(S(C)(=O)=O)CC3)cc12 [D.7.36]
100 to 1000 |  | Cc1c(NC(=O)/C=C/CNC2CC2)cccc1-c1ccc(C(N)=O)c2[nH]ccc12 [J.1.4]
< 100 |  | Cc1c(NC(=O)/C=C\Cl)cccc1-c1ccc(C(N)=O)c2[nH]c(C3=CCN(S(C)(=O)=O)CC3)cc12 [D.7.17]
100 to 1000 |  | Cc1c(NC(=O)C2CCCN(C)C2)cccc1-c1ccc(C(N)=O)c2[nH]c(C3=CCN(S(C)(=O)=O)CC3)cc12 (stereo not drawn) [D.7.37]
 | < 100 | Cc1c(-c2ccc(C(N)=O)c3[nH]c(-c4cnn(C)c4)cc23)cccc1N(C(=O)c1nccs1)C1COC1 [A.10.3, N-(3-(7-carbamoyl-2-(1-methyl-1H-pyrazol-4-yl)-1H-indol-4-yl)-2-methylphenyl)-N-(oxetan-3-yl)thiazole-2-carboxamide]

Further lines, the molecule ahead of its results:

Compound | IC50 [nM] | IC50 [1] [nM]
C=CC(=O)N1CC(N(C)c2ccc(C(N)=O)c3[nH]c(-c4ccc5c(c4)NCCO5)cc23)C1 [E.9.15] | < 100 | 
Cn1cc(-c2cc3c(N4CCC[C@@H](N5Cc6ccc(F)cc6C5=O)C4)ccc(C(N)=O)c3[nH]2)cn1 [O.1.18*] | 1000 to 10000 | 
Cc1ccc(-c2cc3c(-c4c(C)noc4C)ccc(C(N)=O)c3[nH]2)cc1 [A.8.2] |  | 100 to 1000
C=CC(=O)N1CC[C@H](c2ccc(C(N)=O)c3[nH]c(-c4cnn(C)c4)cc23)C1 [E.9.48] | < 100 | 
Cc1ccc(-c2cc3c(-c4ccsc4)ccc(C(N)=O)c3[nH]2)cc1 [A.8.6] |  | 100 to 1000
Cn1cc(-c2cc3c(N4CCC[C@@H](NC(=O)c5ccc(C6CC6)cc5)C4)ccc(C(N)=O)c3[nH]2)cn1 [O.1.25*] | < 100 | 
C=CC(=O)N(C)c1cccc(-c2ccc(C(N)=O)c3[nH]ccc23)c1 [E.1.5] | < 100 | 
Cc1ccc(-c2cc3c(-c4ccn[nH]4)ccc(C(N)=O)c3[nH]2)cc1 [A.8.8] |  | 100 to 1000
C=CC(=O)N1CCCC(c2ccc(C(N)=O)c3[nH]c(-c4cnn(C)c4)cc23)C1 (stereo not drawn) [Example 26, 4-(1-Acryloylpiperidin 3-yl)-2-(1-methyl-1H-pyrazol-4-yl)-1H-indole-7-carboxamide] |  | < 100
C=CC(=O)N1CCC[C@H](c2ccc(C(N)=O)c3[nH]c(-c4cnn(C)c4)cc23)C1 [Example 4.2] | < 100 | 
Cn1cc(-c2cc3c(N4CCC[C@@H](NC(=O)c5ccc(C(F)(F)F)cc5)C4)ccc(C(N)=O)c3[nH]2)cn1 [O.1.21*] | 100 to 1000 | 
CC(=O)C(=O)Nc1cccc(-c2ccc(C(N)=O)c3[nH]ccc23)c1 [E.7.1] | 100 to 1000 | 
C=CC(=O)N1CC(N(C)c2ccc(C(N)=O)c3[nH]c(C4(O)COC4)cc23)C1 [E.9.1.1] | 100 to 1000 | 
CC(C)(C)c1ccc(C(=O)N[C@@H]2CCCN(c3ccc(C(N)=O)c4[nH]c(-c5cccnc5)cc34)C2)cc1 [O.1.26] | < 100 | 
CN(C)C(=O)/C=C/C(=O)Nc1cccc(-c2ccc(C(N)=O)c3[nH]ccc23)c1 [D.4.2] |  | 1000 to 10000
Cc1c(N)cccc1-c1ccc(C(N)=O)c2[nH]ccc12 [Example 16, 4-(3-Amino-2-methylphenyl)-1H-indole-7-carboxamide] |  | 1000 to 10000
C=C(C)C(=O)Nc1c[nH]c2c(C(N)=O)ccc(-c3cccc(NC(=O)c4nccs4)c3C)c12 [D.3.4] |  | 1000 to 10000

Compound | IC50 [nM] | IC50 [1] [nM]
C=C(CN1CCOCC1)C(=O)Nc1cccc(-c2ccc(C(N)=O)c3[nH]ccc23)c1 [D.6.2] |  | < 100
C=CC(=O)N1C[C@H]2CN(c3ccc(C(N)=O)c4[nH]ccc34)C[C@H]21 [E.9.42] | 100 to 1000 | 
C=CC(=O)N1CC[C@@H](c2ccc(C(N)=O)c3[nH]c(-c4cnn(C)c4)cc23)C1 [E.9.49] | 100 to 1000 | 
C=CC(=O)Nc1cc(F)c(F)c(-c2ccc(C(N)=O)c3[nH]ccc23)c1 [E.1.21] | < 100 | 
C=CC(=O)N1CC(N(C)c2ccc(C(N)=O)c3[nH]c(-c4cn(C)nc4C)cc23)C1 [E.9.18] | < 100 | 
C=CC(=O)N1CC(N(C)c2ccc(C(N)=O)c3[nH]c([C@H]4CCOC4)cc23)C1 [Example 5.2] | < 100 | 
Cc1c(-c2ccc(C(N)=O)c3[nH]c(-c4cncnc4)cc23)cccc1-n1cnc2ccc(F)cc2c1=O [A.13.2] |  | 100 to 1000
C=CC(=O)N1CCC[C@H](c2ccc(C(N)=O)c3[nH]ccc23)C1 [30 (R), (R)-4-(1-Acryloylpiperidin-3-yl)-1H-indole-7-carboxamide] |  | 100 to 1000
N#CCNS(=O)(=O)c1cccc(-c2ccc(C(N)=O)c3[nH]ccc23)c1 [A.6.1] |  | 1000 to 10000
C=CC(=O)N1CC(N(C)c2ccc(C(N)=O)c3[nH]c(C4CCOC4)cc23)C1 (stereo not drawn) [E.9.21] | < 100 | 
C=CC(=O)N1CC(N(C)c2ccc(C(N)=O)c3[nH]c(C)cc23)C1 [E.9.25] | < 100 | 
Cn1cc(-c2cc3c(N4CCC[C@@H](NC(=O)c5ccc(C(C)(C)C)cc5)C4)ccc(C(N)=O)c3[nH]2)cn1 [O.1.19*] | < 100 | 
C=CC(=O)N1CC(N(C)c2ccc(C(N)=O)c3[nH]c(-c4ccnn4C)cc23)C1 [E.9.16] | < 100 | 
NC(=O)c1ccc(N2CCC[C@@H](n3cnc4ccccc4c3=O)C2)c2cc(-c3ccc(F)cc3)[nH]c12 [O.1.14*] | 100 to 1000 | 
Cn1cc(-c2cc3c(N4CCC[C@@H](NC(=O)c5ccc(C(F)F)cc5)C4)ccc(C(N)=O)c3[nH]2)cn1 [O.1.22*] | 100 to 1000 | 
C=CC(=O)N1CCCC(c2ccc(C(N)=O)c3[nH]ccc23)C1 (stereo not drawn) [Example 25, 4-(1-Acryloylpiperidin-3-yl)-1H-indole-7-carboxamide] |  | 100 to 1000
Cc1c(N)cccc1-c1cnc(C(N)=O)c2[nH]ccc12 [Example 2, 4-(3-Amino-2-methylphenyl)-1H-pyrrolo[2,3-c]pyridine-7-carboxamide] |  | 1000 to 10000
